The record followed here is article PMC2233835 (The Journal of General Physiology, 2001).

Structures are written as SMILES.

Experiment [1] addresses T1, X-αR/βC (Bos taurus, UniProt Q00194, A200G/A344S/A378F/A555M/A612E/C169F/D157S/D193E/D538A/D588Q/D604M/DEL101-144/DEL91-95/E147F/E148K/E189Q/E196F/E230D/E231L/F201L/F214C/F374V/G160D/G591A/G605N/I156V/I181L/I182V/I235R/I530V/I609V/I611A/INS98[…]/K146T/K150R/K151W/K237N/K239I/K346C/K506R/K521Q/K551Q/K564R/K590Q/K598R/L195F/L199V/L210I/L351F/L583V/L593M/L606K/M175L/M213T/M592V/M602L/N161D/N165Y/N613A/P158Q/P173A/Q494R/Q599E/Q97T/R232A/R345F/R369K/R512K/S192D/S205C/S240R/S350C/S371E/S537T/S540G/T162I/T171A/T179I/T217L/T364M/T584A/V153G/V154F/V174S/V208I/V215I/V534A/V535L/Y194N/Y197L/Y541C).
T1 sequence (Q00194 with tags, fused parts or gaps DEL91-95/Q97T/INS98[…]/DEL101-144/K146T/E147F/E148K/K150R/K151W/V153G/V154F/I156V/D157S/P158Q/G160D/N161D/T162I/N165Y/C169F/T171A/P173A/V174S/M175L/T179I/I181L/I182V/E189Q/S192D/D193E/Y194N/L195F/E196F/Y197L/L199V/A200G/F201L/S205C/V208I/L210I/M213T/F214C/V215I/T217L/E230D/E231L/R232A/I235R/K237N/K239I/S240R/A344S/R345F/K346C/S350C/L351F/T364M/R369K/S371E/F374V/A378F/Q494R/K506R/R512K/K521Q/I530V/V534A/V535L/S537T/D538A/S540G/Y541C/K551Q/A555M/K564R/L583V/T584A/D588Q/K590Q/G591A/M592V/L593M/K598R/Q599E/M602L/D604M/G605N/L606K/I609V/I611A/A612E/N613A): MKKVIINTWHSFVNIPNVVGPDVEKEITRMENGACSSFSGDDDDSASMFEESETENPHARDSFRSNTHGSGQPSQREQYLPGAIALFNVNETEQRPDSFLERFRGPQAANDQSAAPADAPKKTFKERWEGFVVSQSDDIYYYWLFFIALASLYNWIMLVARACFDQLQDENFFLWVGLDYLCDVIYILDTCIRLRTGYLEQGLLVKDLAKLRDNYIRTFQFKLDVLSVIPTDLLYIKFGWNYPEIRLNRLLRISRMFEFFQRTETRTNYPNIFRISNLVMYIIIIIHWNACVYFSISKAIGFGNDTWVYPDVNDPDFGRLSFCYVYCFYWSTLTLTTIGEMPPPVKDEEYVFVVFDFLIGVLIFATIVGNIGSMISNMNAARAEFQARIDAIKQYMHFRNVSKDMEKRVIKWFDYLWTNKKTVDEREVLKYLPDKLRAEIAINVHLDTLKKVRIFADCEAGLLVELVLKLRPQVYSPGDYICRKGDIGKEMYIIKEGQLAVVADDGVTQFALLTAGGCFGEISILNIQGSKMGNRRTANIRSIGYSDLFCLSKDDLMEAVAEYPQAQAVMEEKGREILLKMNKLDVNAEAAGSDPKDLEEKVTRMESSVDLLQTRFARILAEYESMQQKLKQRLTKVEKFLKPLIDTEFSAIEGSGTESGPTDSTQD
Description: Macroscopic current dose–response in inside-out patches from Xenopus oocytes. It counts as cell-based, chimera of bovine CNG1, catfish CNG2 and rat CNG5.

Experiment [2] addresses T2, X-β homomeric channels (Bos taurus, UniProt Q00194, A200G/A344S/A378F/A555S/A582V/A612E/C169F/D157S/D193E/D502E/D538A/D577E/D588Q/D604M/DEL101-144/DEL91-95/E147F/E148K/E189Q/E196F/E230D/E231L/F201L/F214C/F374V/F533Y/G160D/G591A/G605N/I156V/I181L/I182V/I235R/I504V/I530V/I566L/I609V/I611A/INS98[…]/K146T/K150R/K151W/K237N/K239I/K346C/K506R/K518R/K521Q/K554M/K590Q/K598R/L195F/L199V/L210I/L351F/L548I/L593M/L606K/M175L/M213T/M580R/M592V/M602L/N161D/N165Y/N613A/P158Q/P173A/Q599E/Q97T/R232A/R345F/R369K/S192D/S205C/S240R/S350C/S371E/S537G/S540L/S553N/T162I/T171A/T179I/T217L/T364M/T584S/V153G/V154F/V174S/V208I/V215I/V487E/V497T/V534A/Y194N/Y197L).
T2 sequence (Q00194 with tags, fused parts or gaps DEL91-95/Q97T/INS98[…]/DEL101-144/K146T/E147F/E148K/K150R/K151W/V153G/V154F/I156V/D157S/P158Q/G160D/N161D/T162I/N165Y/C169F/T171A/P173A/V174S/M175L/T179I/I181L/I182V/E189Q/S192D/D193E/Y194N/L195F/E196F/Y197L/L199V/A200G/F201L/S205C/V208I/L210I/M213T/F214C/V215I/T217L/E230D/E231L/R232A/I235R/K237N/K239I/S240R/A344S/R345F/K346C/S350C/L351F/T364M/R369K/S371E/F374V/A378F/V487E/V497T/D502E/I504V/K506R/K518R/K521Q/I530V/F533Y/V534A/S537G/D538A/S540L/L548I/S553N/K554M/A555S/I566L/D577E/M580R/A582V/T584S/D588Q/K590Q/G591A/M592V/L593M/K598R/Q599E/M602L/D604M/G605N/L606K/I609V/I611A/A612E/N613A): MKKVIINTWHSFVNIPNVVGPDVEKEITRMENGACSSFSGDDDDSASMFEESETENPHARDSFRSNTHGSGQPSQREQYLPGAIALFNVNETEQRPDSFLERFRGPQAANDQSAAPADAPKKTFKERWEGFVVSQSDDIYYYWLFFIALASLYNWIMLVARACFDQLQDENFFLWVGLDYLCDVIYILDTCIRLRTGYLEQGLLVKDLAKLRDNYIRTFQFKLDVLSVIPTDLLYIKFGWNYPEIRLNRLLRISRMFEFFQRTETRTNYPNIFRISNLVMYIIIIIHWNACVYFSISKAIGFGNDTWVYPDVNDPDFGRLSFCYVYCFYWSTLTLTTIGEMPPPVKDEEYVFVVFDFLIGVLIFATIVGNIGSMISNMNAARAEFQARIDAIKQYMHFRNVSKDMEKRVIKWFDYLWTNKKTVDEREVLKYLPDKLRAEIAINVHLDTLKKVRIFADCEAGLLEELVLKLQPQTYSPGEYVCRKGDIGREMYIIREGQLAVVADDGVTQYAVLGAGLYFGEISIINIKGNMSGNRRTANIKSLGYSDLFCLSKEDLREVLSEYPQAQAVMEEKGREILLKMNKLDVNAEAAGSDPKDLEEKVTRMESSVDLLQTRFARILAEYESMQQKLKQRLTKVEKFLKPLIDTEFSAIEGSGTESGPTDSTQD
The description is as above. It counts as cell-based, chimera of bovine CNG1, catfish CNG2 and rat CNG5. To be noted: for Hill coefficient h: −100 mV.

In the case of `Nc1nc2c(ncn2[C@@H]2O[C@@H]3COP(=O)([O-])O[C@H]3[C@H]2O)c(=O)[nH]1.[Na+]` [cGMP], the Desensitization result was “Yes” in experiment [1]; “no evidence for this desensitization and No” in experiment [2] (agonist up to 30 mM). In experiment [1] (biphasic dose–response curve), the “agonist concentration above which desensitization occurs” value is on record as “above 3 mM”. In addition, the Hill coefficient h in experiment [1] (−100 mV, composite fit ± SEM, cGMP: excluding data >3 mM) is given as 1.120 ± 0.044; in experiment [2] (one patch (Fig. 1C), Hill fit ± SE), 1.94 ± 0.13; in experiment [2] (mean ± SD of individual patches), 2.07 ± 0.27 (9). Also, the agonist character entry in experiment [2] (macroscopic currents) was “full agonists”.
